{
  "source": "patent EP1101492A1",
  "about": "“NOVEL REMEDIES FOR ALLERGIC DISEASES” (FUJI YAKUHIN KOGYO KABUSHIKI KAISHA, priority 1998, dated 2000)",
  "key": {"[1]": {"system": "guinea pig allergic rhinitis models", "test": "Allergic rhinitis model: nasal airway resistance", "type": "in vivo, Guinea pigs", "settings": "15 mg/kg s.c. one hour prior to rhinitis-induction; N=5; recorded 20 minutes after antigen-challenge", "method": "Guinea pigs (male, Std:Hartley, 3 weeks old) were housed and fed in a aluminum cage at a rate of up to 5 animals per cage. After acclimatization for 1 week, the guinea pigs were administered intravenously with an anti-ovalbumin antibody (Nihon Bioresearch Inc., Hajima Institute; antibody titer by a 3-hour homologous passive cutaneous anaphylaxis reaction, 1 : 8192) prepared according to the Orange & Moore method (Orange, R. P. and Moore, E. G., The Journal of Immunology 116: p.392-397, 1976) into their auricle vein at a dose of 0.3 mL/animal for passive sensitization. Twenty four to twenty six hours after sensitization under conditions of fast and free access to drinking water, the sensitized guinea pigs were anesthetized with urethane (1.2 g/kg, intraperitoneal administration), fixed in a supine position, and mediad excised cervically to expose tracheas. […] Variations of the ventilatory overflow were quantitatively recorded on a recticoder (RECTI-HORIZ-8K, Nippon Denki Sanei K.K.) for 20 minutes after antigen-challenge.\nWave height (cm) was measured on recorded papers and a nasal airway resistance value was calculated according to the following formula: Percent Increase (%) in Nasal Airway Resistance =((Observed Value) - (Value prior to Administration))/((Complete Obstruction)- (Value prior to Administration))× 100 [formula] […]"}, "allergic peritonitis": {"system": "allergic peritonitis", "test": "Allergic peritonitis induced with ragweed pollen extract (peritoneal exudate cells)", "type": "in vivo, Balb/c mice", "settings": "ragweed pollen extract challenge; 30 mg/kg i.p. 5 minutes prior to induction, 3, 6 and 12 hours post-induction; 24 hours after induction", "method": "Each efficacy on allergic peritonitis was examined according to methods as disclosed in Ouchi et al., \"Seibutsu Yakukagaku Jikken Koza, Ensho To Allergy (Inflammation and Allergy) I-3\", pp.139 to 151, Hirokawa Publishing Co., Japan and Spicer et al., The International Archives of Allergy and Applied Immunology, 81: 81 to 84, 1986.\nA ragweed (Ambrosia artemisiaefolia) pollen extract (1:100, Torii Pharmaceutical Co., Ltd.) was diluted 10-fold with physiological saline and administered subcutaneously to male Balb/c mice (7 weeks old, 20 to 23 g, purchased from JAPAN SLC, Inc.) on Days 0 and 1 at a single dose of 0.1 mL and further on Days 6, 8 and 14 at a single dose of 0.2 mL for sensitization. On Day 20 after the initial sensitization, an antigen solution for induction (a mixture of the aforementioned 10-fold diluted ragweed pollen extract, 50 units/mL of penicillin G potassium, and 0.05 mg/mL of streptomycin sulfate) was administered intraperitoneally to each animal at a dose of 0.2 mL to raise allergic peritonitis. […]\nTwenty four hours after induction, mice were sacrificed under ether […] and each penitoneal cavity was lavaged twice or thrice with a washout medium (total volume: 5 mL, physiological saline containing 10 units/mL of heparin). […] The retrieved washout medium was measured for its yield (mL) and the number of exudate cells therein by using Turk solution and counting on a haemocytometer and a total number of PEC was calculated. […] After staining, PEC was subjected to fractional counts under a microscope with classification into eosinophils, neutrophils, lymphocytes/macrophages and basophils based on their form and stain nature (more than 500 PEC per specimen were randomly counted). […] After counting, intraperitoneal exudation inhibition rates were calculated by the following formula and expressed as the therapeutic efficacies: Inhibition Rate (%) =[1 -((PEC in Sensitized/Drug-Treated Mouse) - (PEC in Unsensitized/Saline-Treated Mouse))/((PEC in Sensitized/Saline-Treated Mouse) - (PEC in Unsensitized/Saline-Treated Mouse))]× 100 [formula]"}, "[2]": {"system": "mouse contact-type (type IV) dermatitis models", "test": "Type IV allergic dermatitis (oxazolone-induced auricle edema)", "type": "in vivo, Balb/c mice", "settings": "50 mg/mL in ethanol", "method": "Mice (male, Balb/c, 6 weeks old, 20 to 25 g) were sensitized by painting a 3% solution of oxazolone (100 µL) abdominally. Six days after sensitization, a 0.5% solution of oxazolone in acetone was painted on both sides of a right ear at a dose of 10 µL to raise auricle edema. An untreated group was painted with the solvent (acetone) alone onto both sides of a left ear of the same mouse at 10 µL. At 24 hours after edema-induction, each mouse was sacrificed with ether and an equivalent each of right and left auricles was stamped out with a puncher (diameter: 6 mm). Both left and right auricle sections were measure for their weight and each percent edema was calculated (Kazuo Ouchi (Ed.), \"Seibutsu Yakukagaku Jikken Koza, Ensho To Allergy (Inflammation and Allergy) I-1\", 1993, Hirokawa Publishing Co., Japan) Percent Edema (%) =((Right Auricular Segment Weight - Left Auricular Segment Weight))/(Left Auricular Segment Weight)× 100 [formula]\nThe solvent (ethanol) alone was painted on a left auricle at the same dose (treated group). Unsensitized mice were also treated for induction similarly and then treated with the compound of the present invention, only followed by examination for the potency of the compound of the present invention on auricles (unsensitized group). The number of animals used in the test was set 4 per group. […]"}},
  "data": [
    {"compound": "CNC(=O)[C@H](Cc1ccc(NC(=N)N)cc1)NC(=O)[C@H](CC(C)C)C(CCCc1ccccc1)C(=O)NO", "note": "(single isomer, unassigned) [Compound No. 130, N-[4-(N-Hydroxyamino)-2(R)-isobutyl-3(R or S)-(3-phenyltrimethylene)succinyl)-L-4'-guanidophenylalanine-N-methylamide 1 acetate]", "values": [
      {"measurement": "increase in nasal airway resistance due to antigen challenge (FIG. 15)", "setting": "[1]", "result": "markedly ameliorates an increase in nasal airway resistance"},
      {"measurement": "decrease in total PEC number", "setting": "allergic peritonitis", "result": 143.8, "unit": "%"},
      {"measurement": "inhibition of infiltration of eosinophils into the peritoneal cavity", "setting": "allergic peritonitis", "result": 57.2, "unit": "%"},
      {"measurement": "inhibition of infiltration of lymphocytes/macrophages into the peritoneal cavity", "setting": "allergic peritonitis", "result": 219.0, "unit": "%"},
      {"measurement": "development of auricle edemas (FIG. 13)", "setting": "[2]; 10 µL per side painted on right auricle 0.5 hr prior to and 6 hours after edema-induction, 24 hours after induction", "result": "amelioration of auricle edemas"},
      {"measurement": "effect of the compound alone on auricles (FIG. 13)", "setting": "[2]; unsensitized mice, 10 µL per side painted twice", "result": "almost free of swelling and/or thinning"}
    ]}
  ]
}
